# Assay results from patent publication US20030118983A1, “Rapid screening procedure for inflammation mediators” (priority 2000, published 2003).
# Values joined by “and” are separate entries in the source; they are usually repeats but may differ in a detail not shown here. Equal values may be shown once.
# What was measured:
# lymphocytes = experiment: HE effect on lymphocyte membrane integrity in mixed PMN/lymphocyte preparation (propidium iodide)
# Procedure: HE effects on surrounding lymphocyte membrane integrity mediated by PMN-derived NO were determined by cytofluorometric measurements of intracellular propidium iodide levels in a mixed PMN/lymphocyte preparation using 100,000 lymphocytes and PMN/lymphocyte ratios of 0/1, 2/1, 4/1, 10/1). For comparison some aliquots of PMNs were loaded with L-NMMA (5 mM) or 2-(4-carboxyphenyl)-4,4,5,5-tetramethyl imidazoline-1-oxyl-3-oxide (carboxy-PTIO) (5 mM) (Calbiochem, La Jolla, Calif.), a NO scavenger, prior to incubating leukocytes with HE (1 nM) for 40 min.
# (§4) The purity of PMNs and lymphocytes was greater than 88% and 95%, respectively, and their viability, as determined by trypan blue-exclusion, was greater than 90%.
# PMNs [1] = experiment: HE and 17β-E2 effects on intracellular oxidants (NO) in PMNs, DCFH oxidation; type: cell-based, human; conditions: for effect on HE-induced intracellular oxidants (NO): ICI 182,780 0.1 nM
# Procedure: HE effects on intracellular levels of oxidants in PMNs were measured using a previously reported cytofluorometric procedure.
# as §4
# PMNs [2] = experiment: HE-induced DNA strand breaks in PMNs (dUTP nick end labeling); type: cell-based, human; conditions: for effect on HE-induced DNA strand breaks: at HE-induced peak values (3-6 nM)
# Procedure: HE-induced DNA strand breaks in PMNs were measured by flow cytometry using the tdt-mediated dUTP nick end labeling assay, In Situ Cell Death Detection Kit (Boehringer Mannheim, Indianapolis, Ind.) according to manufacturer's instructions. PMNs were incubated with L-NMMA, 17β-E2 receptor antagonists, TNFα, and varying concentrations of HE as described in the above HE-induced DCFH oxidation experiments with the exception that HE incubation time was 2 h instead of 40 min.
# In Vitro measurements of oxidant production and cellular damage.
# MNCs = experiment: Intracellular oxidants (DCF) in MNCs activated with cytokine cocktail and hemoglobin; type: cell-based, human; conditions: for dampening effect on oxidant production: cytokine and hemoglobin activation, 10 μM steroid
# Procedure: (§1) PMNs and MNCs were harvested from blood via centrifugation with equal volumes of Polymorphprep, GIBCO (Grand Island, N.Y.) at 550×g for 35 minutes at 20° C. […] Replicate experiments were conducted with three to five donors from a pool of six consented male adults.
# (§2) PMNs (10,000,000/ml) and MNCs (20,000,000/ml) were loaded with 2,7-dichlorodihydrofluorescein-diacetate (DCFH-DA) (2 μM) (Molecular Probes; Eugene Oreg.) in HBSS for 30 minutes at 37° C. in a water bath. Non fluorescent DCFH is oxidized to fluorescent DCF by a variety of oxidants. The approach is sensitive, reproducible, and capable of measuring wide concentration range of intracellular oxidants. […] Treated PMNs or MNCs were incubated for 1 or 5 h in HBSS amended with physiological concentrations of Ca^2+ (1.5 mM), Mg^2+ (900 μM), glutamine (1.0 mM); GIBCO; Grand Island, N.Y.), arginine (100 μM), amino acids (1×MEM)(GIBCO; Grand Island, N.Y.), and tetrahydrobiopterin (1.0 μM). Flow cytometric analyses were performed with an argon laser (488 nm) and emission light measured behind a filter transmitting 530/30 nm light on a FACCalibur, Becton Dickinson (San Jose, Calif.) with CELLQuest data acquisition and analysis software. PMNs or MNCs were gated by forward- and side-scatter. For each sample, 10,000 PMNs or MNCs were collected.
# (§3) Statistical Analyses Intracellular oxidants in activated MNCs or PMNs treated with the three highest steroid concentrations or the L-NMMA treatment were compared to untreated activated MNCs or PMNs by Bonferroni corrected t-test.
# PMNs [3] = experiment: Intracellular oxidants (DCF) in PMNs activated with cytokine cocktail and hemoglobin; type: cell-based, human; conditions: for effect on oxidants in PMNs: cytokine and hemoglobin activated PMNs
# Procedure: as §1, §2, §3
# [4] = Organochlorine insecticide levels in serum of burn patients; type: in vivo, human; conditions: for mean peak serum levels: nonsurviving burn patients; for mean peak serum levels / mean peak serum levels higher than in surviving patients: PBD5; for mean peak serum levels higher than in surviving patients: nonsurviving patients
# Procedure: Patients and Subjects. Analyses of xenoestrogens in archived serum were performed on samples from seven nonsurviving males and seven age- and burn-size matched surviving male burn patients admitted between 1991 and 1994 to the United States Army Institute of Surgical Research burn care facility. The criteria for selection of subjects were age (approximately 40-70 years), total burn surface area (≧25%), postburn survival (≧7 days) and lack of preburn disease. Inhalation injury was present in 6 of 7 surviving and 5 of 7 nonsurviving patients. In the non-surviving group, two patients died between postburn day (PBD) 7 and 11. Age-matched healthy males (n=12) were used as control subjects.
# Levels of insecticides in serum of burn patients on postburn day (PBD) 1, 3, 5, 7, and 11 were determined in accordance with a previously reported method25. This method used a Dynamic Thermal Stripper (Environchem, Kemblesville, Pa.) to sparge insecticides from 50 μl of serum. The insecticides were collected on Tenax solid sorbent and subsequently thermally desorbed with a Unacon 810 (Environchem, Kemblesville, Pa.) into a HP 5890 gas chromatograph (Hewlett Packard, Palo Alto, Calif.) equipped with a SPB-608 30 M, fused silica capillary column (J & W Scientific, Folsom, Calif.) and an electron capture detector. Levels of insecticides in serum stored at −75° C. were determined by comparing responses to standard curves constructed from certified standards (Ultra Scientific, Kingstown, R.I.) spiked into a composite sample consisting of serum from 3 subjects, previously determined to have low levels of each insecticide. For consistency, each patient's samples were analyzed during the same day by postburn day (PBD 1, 3, 7, and 11). The detection limit for HE and OC was 76 and 56 pg/mL, respectively. A reference serum sample pooled from 3 patients having medium levels of each insecticide was measured 1-2 times during each day of analyses. […] Serum cholesterol and triglyceride concentrations were determined using Instrumentation Laboratory reagents and analyzed on a Monarch Clinical Chemistry System (Instrumentation Laboratories, Inc., Lexington, Mass.).
# PMNs [5] = conditions: for decrease in DCFH oxidation: 10^−4 M oxidant; for increase in DCFH oxidation over control levels: 10^−5 M oxidant, 30 min
# PMNs [6] = experiment: Propidium iodide staining of oxidant-treated PMNs (cell membrane integrity); conditions: oxidant levels ≧10^−7 M
# PMNs [7] = experiment: Heme protein effect on DCFH oxidation in unstimulated, LPS and TNFα-, and PMA-stimulated PMNs, with or without NOS inhibitors, SOD or antioxidants; type: cell-based, human; conditions: PMA-stimulated PMNs with arginine
# Procedure: DCFH-loaded PMNs were incubated with and without N-methyl-L-arginine (L-NMMA; 5 mM; Calbiochem, San Diego, Calif.) and heme proteins (0.3-1000 μg/mL) at 37 ° C. for 10 minutes. […] In unstimulated and LPS and TNFα -stimulated PMNs, the treatments were oxyMb, or oxyMb+L-NMMA (5 mM). […] RBC cell membranes were ruptured using a micro-ultrasonic cell disrupter, Kontes, Janke and Kukel Gmbh and CO. (Stauten, Germany). […] OxyMb was prepared by mixing excess sodium dithionite with Mb for 1 h and inorganic sulfur compounds were removed by dialyzing in HBSS buffer for 3 h. Percent iron in the ferric state in non-dithionite treated oxyMb or oxyHb was not assessed. […] […] cross-linked Hb was a gift from Walter Reed Army Institute of Research. […] Also, various concentrations of bovine liver Cu, Zn SOD (30-10,000 U/mL; 8-2640 μg/mL) and 30 μg/mL oxyMb were incubated with PMA-stimulated PMNs pretreated with and without L-NMMA. Flow cytometric measurements of oxidant-induced DCF fluorescence were performed as described above.
# PMNs [8] = experiment: as above; type: cell-based, human; conditions: PMA-stimulated PMNs; L-NMMA 5 mM, L-NIO 5 mM, glutathione 25 μM and ascorbate 25 μM, human SOD 300 U/mL
# [9] = TNFα 10 ng/mL added to HE-treated PMNs
compound,measurement,setting,value
"CC1(C)N([O])C(c2ccc(C(=O)O)cc2)=[N+]([O-])C1(C)C [PTIO, 2-(4-carboxyphenyl)-4,4,5,5-tetramethyl imidazoline-1-oxyl-3-oxide, reference compound]",effect on HE-induced cell membrane damage in lymphocytes,lymphocytes; co-incubation with HE 1 nM,attenuated the HE-induced cell membrane damage in the lymphocytes
"CC/C(=C(\c1ccccc1)c1ccc(OCCN(C)C)cc1)c1ccccc1 [tamoxifen, reference compound]",effect on 17β-E2-induced intracellular oxidants (NO),"PMNs [1]; L-NMMA 5 mM, tamoxifen 200 nM",completely inhibited the 17β-E2-induced NO levels
same,effect on HE-induced intracellular oxidants (NO),"PMNs [1]; L-NMMA 5 mM, tamoxifen 200 nM",completely eliminated the HE-induced increase in NO
same,effect on HE-induced DNA strand breaks,PMNs [2],nonsignificant trend for attenuating HE-induced DNA strand breaks
C[C@]12CCC(=O)C=C1CC[C@@H]1[C@@H]2[C@@H](O)C[C@@]2(C)[C@H]1CC[C@]2(O)C(=O)CO [cortisol],time dependence of oxidant reduction in MNCs,MNCs; 5 h versus 1 h of stimulation,reduced oxidant levels in MNCs to a greater extent after 5 h as compared to 1 h of stimulation
same,dampening effect on oxidant production,"MNCs; MNCs, after 1 h",20%
same,effect on oxidants in PMNs,PMNs [3],modest trend for reducing oxidant levels after 5 h
ClC(Cl)=C(c1ccc(Cl)cc1)c1ccc(Cl)cc1 [DDE],increase of mean serum level,"[4]; nonsurvivors, by PBD 11",2.5 times
same,mean serum level,"[4]; nonsurvivors, by PBD 11",3667 pg/mL and 183 nM
TNFα,increase in amplitude of HE intracellular oxidant Gaussian curve,PMNs [1]; [9],60%
same,left shift of HE intracellular oxidant Gaussian curve,PMNs [1]; [9],10 fold
same,increase in amplitude of HE DNA strand break Gaussian curve,PMNs [2]; TNFα added to HE,445%
same,left shift of HE DNA strand break Gaussian curve,PMNs [2]; TNFα added to HE,10 fold
"CCN(CC)/[N+]([O-])=N/O.CCNCC [DEANO, diethylamine nitric oxide]",decrease in DCFH oxidation,PMNs [5],approximately 25%
same,increase in DCFH oxidation over control levels,PMNs [5],25 fold
same,PMNs staining positive for propidium iodide,PMNs [6],87%
hemoglobin: human hemoglobin (100 μg/mL),increase of mean oxidized DCF over unstimulated background,"MNCs; MNCs, after 1 h, data not shown",41%
same,increase of mean intracellular oxidized DCF over unstimulated background,"MNCs; MNCs, after 5 h",259%
same,increase of mean oxidized DCF over unstimulated background,"PMNs [3]; PMNs, after 1 h, data not shown",172%
same,increase of mean intracellular oxidized DCF over unstimulated background,"PMNs [3]; PMNs, after 5 h",197%
"OO [H2O2, hydrogen peroxide]",decrease in DCFH oxidation,PMNs [5],approximately 25%
same,increase in DCFH oxidation over control levels,PMNs [5],25 fold
same,PMNs staining positive for propidium iodide,PMNs [6],87%
"O.O.O.O.[Cl][Fe][Cl] [FeCl2.4H2O, reference compound]",effect on DCFH oxidation,PMNs [7],produced a decrease in DCFH oxidation above 30 μg/mL
ClC1=C(Cl)[C@]2(Cl)[C@H]3[C@H]([C@H](Cl)[C@]4(Cl)O[C@H]34)[C@@]1(Cl)C2(Cl)Cl [OC],mean peak serum levels,[4],677 pg/ml and 1.59 nM
same,mean peak serum levels higher than in surviving patients,[4],approximately 90%
"CC(=N)NCCCC[C@H](N)C(=O)O [L-NIL, L-N^6-(-1-Iminoethyl)lysine]",effect on oxidants in activated MNCs,MNCs; L-NIL 10 μM,negligible effects on activated MNCs and PMNs
same,effect on oxidants in activated PMNs,PMNs [3]; L-NIL 10 μM,negligible effects on activated MNCs and PMNs
"C[C@]12CC[C@@H]3c4ccc(O)cc4C[C@@H](CCCCCCCCC[S+]([O-])CCCC(F)(F)C(F)(F)F)[C@H]3[C@@H]1CC[C@@H]2O (stereo partly drawn) [ICI 182,780, reference compound]",effect on HE-induced intracellular oxidants (NO),"PMNs [1]; L-NMMA 5 mM, tamoxifen 200 nM",completely eliminated the HE-induced increase in NO
same,effect on HE-induced DNA strand breaks,PMNs [2],nonsignificant trend for attenuating HE-induced DNA strand breaks
ClC1=C(Cl)C2(Cl)C3C4OC4C(Cl)C3C1(Cl)C2(Cl)Cl (stereo not drawn) [HE],"HE concentration of peak response of intracellular oxidants, with TNFα",PMNs [1]; co-incubation with TNFα 10 ng/mL,approximately 0.1 nM
same,"HE concentration of peak response of DNA strand breaks, Gaussian curve",PMNs [2]; 2 h incubation,approximately 5 nM
same,"HE concentration of peak response of DNA strand breaks, with TNFα",PMNs [2]; co-incubation with TNFα,approximately 0.3 nM
same,mean peak serum levels,[4],215 pg/ml and 0.55 nM
same,mean peak serum levels higher than in surviving patients,[4],approximately 90%
same,effect on cell membrane damage in lymphocytes,"lymphocytes; HE 1 nM, PMN/lymphocyte ratios above 2",increased cell membrane damage in the lymphocytes
"C[C@]12CC[C@@H]3c4ccc(O)cc4CC[C@H]3[C@@H]1CC[C@@H]2O [17β-E2, 17β-estradiol]",dampening effect on oxidant production,"MNCs; MNCs, after 1 h",65%
same,effect on oxidants in PMNs,PMNs [3],no effect on oxidants
"human erythrocyte Cu, Zn SOD: superoxide scavenger, superoxide dismutase from human erythrocytes",effect on oxyMb-induced DCFH oxidation,PMNs [8],increased oxyMb induced-DCFH oxidation
"CC(=O)[C@H]1CC[C@H]2[C@@H]3CCC4=CC(=O)CC[C@]4(C)[C@H]3CC[C@]12C [P4, progesterone]",dampening effect on oxidant production,"MNCs; MNCs, after 1 h",0%
same,effect on oxidants in PMNs,PMNs [3],no effect on oxidants
oxyhemoglobin [oxyHb],less efficient than oxyMb in inducing DCFH oxidation,PMNs [7],20-40%
